Laboratory results published in patent US10538498B2, “1,3,4-oxadiazole sulfonamide derivative compounds as histone deacetylase 6 inhibitor, and the pharmaceutical composition comprising the same” (Chong Kun Dang Pharmaceutical Corp., priority 2015, dated 2020).

Biological target: T1, human recombinant HDAC6 (Homo sapiens, UniProt Q9UBN7)
T1 construct: purchased Calbiochem 382180
T1 sequence (Q9UBN7 1-1215): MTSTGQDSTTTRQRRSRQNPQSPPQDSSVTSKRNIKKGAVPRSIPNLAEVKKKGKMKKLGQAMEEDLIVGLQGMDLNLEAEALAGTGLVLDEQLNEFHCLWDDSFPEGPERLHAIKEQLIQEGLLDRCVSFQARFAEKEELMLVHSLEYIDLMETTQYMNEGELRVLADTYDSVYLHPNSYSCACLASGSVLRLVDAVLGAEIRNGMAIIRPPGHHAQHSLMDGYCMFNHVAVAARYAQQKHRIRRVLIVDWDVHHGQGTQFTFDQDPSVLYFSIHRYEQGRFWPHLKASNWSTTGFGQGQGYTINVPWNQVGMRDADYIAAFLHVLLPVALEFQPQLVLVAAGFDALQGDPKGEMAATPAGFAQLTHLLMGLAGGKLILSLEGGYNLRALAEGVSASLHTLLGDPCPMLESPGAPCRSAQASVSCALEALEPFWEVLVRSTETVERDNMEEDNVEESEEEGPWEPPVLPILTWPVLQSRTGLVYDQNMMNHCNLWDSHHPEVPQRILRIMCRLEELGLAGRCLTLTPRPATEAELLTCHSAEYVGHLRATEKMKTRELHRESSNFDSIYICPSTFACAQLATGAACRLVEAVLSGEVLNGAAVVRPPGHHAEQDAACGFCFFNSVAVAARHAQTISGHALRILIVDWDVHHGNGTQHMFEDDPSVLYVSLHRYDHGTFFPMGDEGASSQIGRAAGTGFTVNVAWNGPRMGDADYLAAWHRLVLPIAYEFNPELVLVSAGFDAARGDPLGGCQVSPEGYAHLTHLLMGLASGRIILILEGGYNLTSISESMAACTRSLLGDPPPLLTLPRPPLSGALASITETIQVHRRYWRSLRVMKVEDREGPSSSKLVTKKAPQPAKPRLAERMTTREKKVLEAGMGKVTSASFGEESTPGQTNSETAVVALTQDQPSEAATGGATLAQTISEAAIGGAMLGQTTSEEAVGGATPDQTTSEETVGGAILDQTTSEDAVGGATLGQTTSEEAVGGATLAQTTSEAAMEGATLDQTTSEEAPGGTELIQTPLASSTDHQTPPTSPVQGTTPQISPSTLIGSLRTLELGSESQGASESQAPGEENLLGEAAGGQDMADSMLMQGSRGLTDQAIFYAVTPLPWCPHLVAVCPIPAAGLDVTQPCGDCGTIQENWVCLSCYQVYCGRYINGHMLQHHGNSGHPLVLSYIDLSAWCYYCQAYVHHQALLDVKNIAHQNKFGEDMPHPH
Assay: HDAC6 enzyme activity inhibition assay (HDAC Fluorimetric Drug Discovery Kit)
Type: biochemical
Settings: for HDAC6 selectivity (fold): HDAC1 vs HDAC6; for IC50: same protocol as the HDAC1 enzyme activity test
Description: In order to examine the HDAC6 selectivity of the compounds of formula I of the present invention by HDAC1 and HDAC6 enzymatic activity inhibition assays, an experiment was performed using a conventional substance as a control.
HDAC enzyme activity was measured using a HDAC Fluorimetric Drug Discovery Kit (BML-AK511, 516, Enzo Life Science). For the HDAC1 enzyme activity test, human recombinant HDAC1 (BML-SE456) was used as an enzyme source, and Fluor de Lys®-“SIRT1 (BNL-KI177) was used as a substrate. A 5-fold dilution of the compound was seeded into a 96-well plate, and then 0.3 μg of the enzyme and 10 μM of the substrate were added to each well of the plate and allowed to react at 30° C. for 60 minutes. Then, Fluor de Lys®-Developer II (BML-KI176) was added thereto and allowed to react for 30 minutes, after which the fluorescence value (Ex 360, Em 460) was measured using a multi-plate reader (Flexstation 3, Molecular Device). The HDAC6 enzyme was tested using human recombinant HDAC6 (382180) (Calbiochem) according to the same protocol as the HDAC1 enzyme activity test method. Based on the resulting values, each IC50 value was calculated using GraphPad Prism4.0 program.

HDAC6 selectivity (fold)	IC50	SMILES
3030 fold	33 nM	CS(=O)(=O)N(Cc1ccc(-c2nnc(C(F)(F)F)o2)cc1F)c1cccc(F)c1 [Compound 11181, N-(2-fluoro-4-(5-(trifluoromethyl)-1,3,4-oxadiazol-2-yl)benzyl)-N-(3-fluorophenyl)methanesulfonamide]
5882 fold	17 nM	CS(=O)(=O)N(Cc1ccc(-c2nnc(C(F)F)o2)cc1F)c1cccc(F)c1 [Compound 11182, N-(4-(5-(difluoromethyl)-1,3,4-oxadiazol-2-yl)-2-fluorobenzyl)-N-(3-fluorophenyl)methanesulfonamide]
5000 fold	20 nM	CS(=O)(=O)N(Cc1ccc(-c2nnc(C(F)F)o2)cc1F)c1cccc(Cl)c1 [Compound 11191, N-(3-chlorophenyl)-N-(4-(5-(difluoromethyl)-1,3,4-oxadiazol-2-yl)-2-fluorobenzyl)methanesulfonamide]
3704 fold	27 nM	COc1ccc(N(Cc2ccc(-c3nnc(C(F)F)o3)cc2F)S(C)(=O)=O)cc1 [Compound 11193, N-(4-(5-(difluoromethyl)-1,3,4-oxadiazol-2-yl)-2-fluorobenzyl)-N-(4-methoxyphenyl)methanesulfonamide]
1563 fold	64 nM	CS(=O)(=O)N(Cc1ccc(-c2nnc(C(F)F)o2)cc1F)c1cncnc1 [Compound 11195, N-(4-(5-(difluoromethyl)-1,3,4-oxadiazol-2-yl)-2-fluorobenzyl)-N-(pyrimidin-5-yl)methanesulfonamide]
6667 fold	15 nM	CS(=O)(=O)N(Cc1ccc(-c2nnc(C(F)F)o2)cc1F)c1cccc(Br)c1 [Compound 11197, N-(3-bromophenyl)-N-(4-(5-(difluoromethyl)-1,3,4-oxadiazol-2-yl)-2-fluorobenzyl)methanesulfonamide]
7692 fold	13 nM	CS(=O)(=O)N(Cc1ccc(-c2nnc(C(F)F)o2)cn1)c1cccc(F)c1 [Compound 11217, N-((5-(5-(difluoromethyl)-1,3,4-oxadiazol-2-yl)pyridin-2-yl)methyl)-N-(3-fluorophenyl)methanesulfonamide]
1064 fold	94 nM	CS(=O)(=O)N(Cc1ccc(-c2nnc(C(F)F)o2)cc1F)c1ccccc1C(F)(F)F [Compound 11219, N-(4-(5-(difluoromethyl)-1,3,4-oxadiazol-2-yl)-2-fluorobenzyl)-N-(2-(trifluoromethyl)phenyl)methanesulfonamide]
990 fold	101 nM	CS(=O)(=O)N(Cc1ccc(-c2nnc(C(F)F)o2)cc1F)c1ccc(C(F)(F)F)cc1 [Compound 11221, N-(4-(5-(difluoromethyl)-1,3,4-oxadiazol-2-yl)-2-fluorobenzyl)-N-(4-(trifluoromethyl)phenyl)methanesulfonamide]
4348 fold	23 nM	CS(=O)(=O)N(Cc1ccc(-c2nnc(C(F)F)o2)cc1F)c1ccc2c(c1)OCO2 [Compound 11227, N-(benzo[d][1,3]dioxol-5-yl)-N-(4-(5-(difluoromethyl)-1,3,4-oxadiazol-2-yl)-2-fluorobenzyl)methanesulfonamide]
2703 fold	37 nM	Cc1ccccc1N(Cc1ccc(-c2nnc(C(F)F)o2)cc1F)S(C)(=O)=O [Compound 11249, N-(4-(5-(difluoromethyl)-1,3,4-oxadiazol-2-yl)-2-fluorobenzyl)-N-(o-tolyl)methanesulfonamide]
1563 fold	64 nM	COc1ccccc1N(Cc1ccc(-c2nnc(C(F)F)o2)cc1F)S(C)(=O)=O [Compound 11251, N-(4-(5-(difluoromethyl)-1,3,4-oxadiazol-2-yl)-2-fluorobenzyl)-N-(2-methoxyphenyl)methanesulfonamide]

Continued, compound first:

SMILES	HDAC6 selectivity (fold)	IC50
CS(=O)(=O)N(Cc1ccc(-c2nnc(C(F)(F)F)o2)c(F)c1)c1ccccc1 [Compound 11183, N-(3-fluoro-4-(5-(trifluoromethyl)-1,3,4-oxadiazol-2-yl)benzyl)-N-phenylmethanesulfonamide]	426 fold	235 nM
CS(=O)(=O)N(Cc1ccc(-c2nnc(C(F)F)o2)cc1)Cc1ccc(-c2nnc(C(F)F)o2)cc1 [Compound 11186, N,N-bis(4-(5-(difluoromethyl)-1,3,4-oxadiazol-2-yl)benzyl)methanesulfonamide]	433 fold	231 nM
CS(=O)(=O)N(Cc1ccc(-c2nnc(C(F)(F)F)o2)cc1F)c1cncnc1 [Compound 11194, N-(2-fluoro-4-(5-(trifluoromethyl)-1,3,4-oxadiazol-2-yl)benzyl)-N-(pyrimidin-5-yl)methanesulfonamide]	1538 fold	65 nM
CS(=O)(=O)N(Cc1ccc(-c2nnc(C(F)(F)F)o2)cc1F)c1ccccc1C(F)(F)F [Compound 11218, N-(2-fluoro-4-(5-(trifluoromethyl)-1,3,4-oxadiazol-2-yl)benzyl)-N-(2-(trifluoromethyl)phenyl)methanesulfonamide]	429 fold	233 nM
CCCCN(Cc1ccc(-c2nnc(C(F)(F)F)o2)cc1)S(C)(=O)=O [Compound 11222, N-butyl-N-(4-(5-(trifluoromethyl)-1,3,4-oxadiazol-2-yl)benzyl)methanesulfonamide]	243 fold	412 nM
O=S(=O)(c1cccnc1)N(Cc1ccc(-c2nnc(C(F)F)o2)cc1F)c1cccc(F)c1 [Compound 11225, N-(4-(5-(difluoromethyl)-1,3,4-oxadiazol-2-yl)-2-fluorobenzyl)-N-(3-fluorophenyl)pyridine-3-sulfonamide]	4167 fold	24 nM
O=S(=O)(C1CCCCC1)N(Cc1ccc(-c2nnc(C(F)F)o2)cc1F)c1ccccc1 [Compound 11229, N-(4-(5-(difluoromethyl)-1,3,4-oxadiazol-2-yl)-2-fluorobenzyl)-N-phenylcyclohexanesulfonamide]	1176 fold	85 nM
CCC(C)S(=O)(=O)N(Cc1ccc(-c2nnc(C(F)F)o2)cc1F)c1ccccc1 (stereo not shown) [Compound 11230, N-(4-(5-(difluoromethyl)-1,3,4-oxadiazol-2-yl)-2-fluorobenzyl)-N-phenylbutane-2-sulfonamide]	3030 fold	33 nM
COC(=O)CS(=O)(=O)N(Cc1ccc(-c2nnc(C(F)F)o2)cc1F)c1ccccc1 [Compound 11231, methyl 2-(N-(4-(5-(difluoromethyl)-1,3,4-oxadiazol-2-yl)-2-fluorobenzyl)-N-phenylsulfamoyl)acetate]	4545 fold	22 nM
Cc1ccccc1N(Cc1ccc(-c2nnc(C(F)(F)F)o2)cc1F)S(C)(=O)=O [Compound 11248, N-(2-fluoro-4-(5-(trifluoromethyl)-1,3,4-oxadiazol-2-yl)benzyl)-N-(o-tolyl)methanesulfonamide]	893 fold	112 nM
COc1ccccc1N(Cc1ccc(-c2nnc(C(F)(F)F)o2)cc1F)S(C)(=O)=O [Compound 11250, N-(2-fluoro-4-(5-(trifluoromethyl)-1,3,4-oxadiazol-2-yl)benzyl)-N-(2-methoxyphenyl)methanesulfonamide]	1000 fold	100 nM
